In patent publication US20090186838A1, “Amphotericin Derivatives” (Eidgenössische Technische Hochschule Zürich, priority 2006, published 2009):
≈ marks a conversion by molar mass, not a printed value.

Key:
[1] = tested on: human erythrocytes; assay: Hemolytic assay (EH50); type: cell-based; conditions: concentration that led to 50% hemolysis of human erythrocytes; one hour at 37° C.
Experimental: Hemolytic Assay. The hemotoxicity of the polyene macrolide derivatives of the invention was determined by measuring the toxicity towards human erythrocytes (EH50 value) using an established assay (Kinsky, S. C. et al., Biochem. Biophys. Res. Comm. 1962, 9, 503). Human blood, anticoagulated with citrate or EDTA, was centrifuged (2000×g) at 4° C. for 10 minutes. The pellets were washed three times with PBS buffer (pH 7.2 with 2 g/L glucose) and then diluted to a concentration of 4% (4×10^8 cells/mL). All experiments were done in triplo and the total volume for the hemolysis tubes was 1.4 ml. The solutions were prepared by adding 1% (14 μL) of DMSO solution of the tested compound with […] of PBS buffer and completed with 750 μL of 4% erythrocytes. After one hour incubation at 37° C., the samples were centrifuged (1500×g) at 4° C. for 5 min and the absorbance of the supernatant was measured at 560 nm. The concentration that led to 50% hemolysis (EH50) was intrapolated graphically. The value for the 100% hemolysis was obtained by the treatment with 100 μM of AmB.
The toxicity of AmB (1a) and the polyene macrolides 3, 9 and 10 towards human erythrocytes was examined using the above described hemolysis assay (Table 3).

[2] = tested on: DSY-654 C. albican mutant cdr1/2; assay: MIC determination in Candida strain DSY-654; type: cell-based, Candida albicans; conditions: Candida albicans
Experimental: (§1) In Vitro Antifungal Activity. MIC values for various strains were determined in accordance with the standard protocol from the National Committee of Clinical Laboratory Standards but using YEPD liquid medium instead of RPMI-1640 medium (National Committee of Clinical Laboratory Standards (Reference Method for Broth Dilution Antifungal Susceptibility Testing of Yeast, M27-A2, Approved Standard-Second Edition, Volume 22, Number 15, 1995). AmB was used as a reference. The strains were cultivated overnight in 5 mL YEPD liquid medium at 30 to 37° C. (30° C. for the strain BY4741; 37° C. for the strain DSY1764) with constant shaking. The saturated cultures were diluted to an ODB600 of 0.1 (3×10P^7 cells/mL). Using 24 wells plate, each well was prepared by adding 1% (12 μL) of DMSO solution of the tested polyene macrolide with 1% (12 μL) yeast cells solution and completed with YEPD (1.176 mL). The plates were sealed with Parafilm and then incubated for 18 to 36 hours at 30 to 37° C. (18 hours at 30° C. for the strain BY4741; 36 hours at 37° C. for the strain DSY1764). The optical density was read at 600 nm using 1.5 mL cuvettes. The MIC value was defined as the drug concentration needed to inhibit growth, less than 5% compared to a drug-free culture.
(§2) MIC values of the polyene macrolides 3, 9 and 10 (Diamine-AmB and its ester and diamide derivative, respectively) in various Candida strains including an AmB-resistant strain C. albicans (DSY1764, with the genotype erg3AΔ::hisG/erg3BΔ::hisG erg11Δ::hisG/erg11Δ::hisG-URA3-hisG) were determined.

[3] = tested on: DSY-294 C. albican CI; assay: MIC determination in Candida strain DSY-294; type: cell-based, Candida albicans; conditions: Candida albicans
Experimental: as §1, §2

[4] = tested on: CAF2-1 C. albican wt; assay: MIC determination in Candida strain CAF2-1; type: cell-based, Candida albicans; conditions: Candida albicans
Experimental: as §1, §2

[5] = tested on: DSY-1764 C. albican mutant erg3/11 (AmB-resistant strain); assay: MIC determination in AmB-resistant Candida strain DSY-1764; type: cell-based, Candida albicans; conditions: Candida albicans, 36 h
Experimental: as §1, §2

[6] = tested on: DSY-296 C. albican CI; assay: MIC determination in Candida strain DSY-296; type: cell-based, Candida albicans; conditions: Candida albicans
Experimental: as §1, §2

| Structure (SMILES) | EH50 [1] [µM] | MIC [2] [µM] | MIC [3] [µM] | MIC [4] [µM] | MIC [5] [µM] | MIC [6] [µM] |
| --- | --- | --- | --- | --- | --- | --- |
| COC(=O)[C@H]1[C@@H]2C[C@@H](O[C@@H]3O[C@H](C)[C@@H](O)[C@H](N(CCCN)CCCN)[C@@H]3O)/C=C/C=C/C=C/C=C/C=C/C=C/C=C/[C@H](C)[C@@H](O)[C@@H](C)[C@H](C)OC(=O)C[C@H](O)C[C@H](O)CC[C@@H](O)[C@H](O)C[C@H](O)C[C@](O)(C[C@@H]1O)O2 [compound 9, N,N-Di-(3-aminopropyl)-AmB Methyl Ester] | 50 | 0.25 (≈ 0.263 µg/mL) | 0.25 (≈ 0.263 µg/mL) | 0.5 (≈ 0.526 µg/mL) | 4 (≈ 4.21 µg/mL) | 0.1 (≈ 0.105 µg/mL) |
| C[C@@H]1[C@H](O)[C@@H](C)/C=C/C=C/C=C/C=C/C=C/C=C/C=C/[C@H](O[C@@H]2O[C@H](C)[C@@H](O)[C@H](N(CCCN)CCCN)[C@@H]2O)CC2O[C@](O)(C[C@@H](O)C[C@@H](O)[C@H](O)CC[C@@H](O)C[C@@H](O)CC(=O)O[C@H]1C)C[C@H](O)[C@H]2C(=O)NCCN [compound 10, 16-(N′-(2-Aminoethyl)-carboxamide)-N,N-di-(3-aminopropyl)-AmB] | 30 |  | 1 (≈ 1.08 µg/mL) | 2 (≈ 2.16 µg/mL) | 4 (≈ 4.32 µg/mL) | 0.75 (≈ 0.81 µg/mL) |
